Results on 20 compounds are retold here after US20240358885A1, “COMPOSITIONS FOR EMBOLIZATION” (IBERHOSPITEX, S.A., priority 2021, published 2024).

Series [1] is described as follows: Radiopacity loss and homogeneity of precipitates incubated in PBS at 37° C. Also noted: key to Homogeneous radiopacity (0-1): non-homegeneous (score=0); homogeneous (score=1). The settings on record: for Radiopacity loss (0-3) / Homogeneous radiopacity (0-1): score; for Radiopacity loss (0-3): 30 days in PBS at 37° C. vs time=0, 150 mg equivalent iodine/ml with 6% ethylene vinyl alcohol copolymer in DMSO; for Homogeneous radiopacity (0-1): C-arm X-ray; for radiopacity loss in PBS over time (in words): PBS at 37° C., 30 min and 30 days. It counts as physicochemical. How it is done: (§1) The resulting solutions were assayed to assess the precipitation behavior and the radiopacity loss.
Radiopacity loss of precipitates was determined by comparing the radiopacity of freshly prepared samples (time=0) and samples incubated for 30 days in phosphate buffered saline (PBS) at 37° C. PBS was changed daily when possible. Radiopacity was determined using a C-arm X-ray equipment (OEC Fluorostar 7900COMPACT2, General Electric). Radiopacity loss was scored as radiostable (score =0) when the radiopacity loss was below 5%, slightly radiolabile when the radiopacity loss was comprised between 5 to 25% radiopacity loss (score=1), moderately radiolabile when the radiopacity loss was comprised between 26 to 69% radiopacity loss (score=2) and highly radiolabile when the radiopacity loss was comprised between 70to 100% radiopacity loss (score=3). Homogeneity of the radiopacity was also scored as non-homegeneous (score=0) or homogeneous (score=1).
The procedure was as defined above. It can be observed that formulations with high logP values, i.e. above 7.0, are radiostable, while formulations with low logP values, i.e. below 2.0 (logP (LFE13)=−1.6 and logP (LFE23) at pH 7.4=−0.5) lose their radiopacity within minutes.

Series [2] can be described thus: Precipitation behavior on slow injection into PBS. It counts as physicochemical. The settings on record: score; 100 ul injected slowly into PBS, 27 G needle. Also noted: key: cohesive (2); cohesive with loss of some material (1); uncontrollable injection or not cohesive (0). How it is done:
as §1
Embolization formulations were slowly injected into phosphate buffered saline (PBS) using a syringe and a fine needle (27 G). Precipitates of embolizing material were obtained after slow injection (1 minute approximately) of 100 ul of embolization formulations. The precipitation behavior was observed and scored as cohesive (2), cohesive with loss of some material (1) and uncontrollable injection or not cohesive (0).

For series [3], the system named is renal artery. Description: In vivo embolization of porcine kidney. Particulars: 0.6 ml injected into the renal artery, 35 kg swine. How it is done: In this example, a 35 kg swine was prepared for blood vessel embolization using the embolic composition LFE09 prepared according to Example 2. Embolization of the left kidney proceeded by placement of a microcatheter into the kidney. The catheter was advanced into the renal artery, flushed with contrast agent to identify the location and then flushed with DMSO, followed by 0.6 ml of the LFE09 composition described above, followed yet by more DMSO within the catheter. LFE09 composition was quickly injected into the renal artery. […] After 14 days, the right kidney was embolized with 0.6 ml of the same LFE09 formulation and the animal was euthanized.

Series [4] is described as follows: Radiopacity loss and homogeneity of precipitates incubated in PBS at 37° C. Type of series: physicochemical. Particulars: 30 min of incubation in PBS at 37° C.
[5] abbreviates: 30 days of incubation in PBS at 37° C.

As for `CCCCCCOc1c(I)cc(I)cc1I` [LFE01], in series [1], the “Radiopacity loss (0-3)” value is reported as 1 (slightly radiolabile when the radiopacity loss was comprised between 5 to 25% radiopacity loss (score=1)) and the “Homogeneous radiopacity (0-1)” value was 0. The “Precipitation (0-2)” value in series [2] is 2.
For `CCOC(=O)COc1c(I)cc(I)cc1I` [LFE02, ethyl 2,4,6-triiodophenoxyacetate], in that order: 2 (moderately radiolabile when the radiopacity loss was comprised between 26 to 69% radiopacity loss (score=2)), 0 and 1.
As to `CCCOC(=O)Cn1cc(I)c(=O)c(I)c1` [LFE03], the “% of radiopacity compared to time zero” value in series [1] (setting [5]) is on record as 14.5%. For the same compound, in series [1], the “radiopacity loss in PBS over time (in words)” value is “significant radiopacity loss”, the “Radiopacity loss (0-3)” value is listed as 3 (highly radiolabile when the radiopacity loss was comprised between 70to 100% radiopacity loss (score=3)) and the “Homogeneous radiopacity (0-1)” value was 1. In addition, the “% of radiopacity compared to time zero” value in series [1] (t zero) is 100.0%. Further, in series [2], the “Precipitation (0-2)” value amounted to 2.
For the compound `CCCCCCOC(=O)Cn1cc(I)c(=O)c(I)c1` [LFE04], in series [1], the “Radiopacity loss (0-3)” value is recorded as 2 (moderately radiolabile when the radiopacity loss was comprised between 26 to 69% radiopacity loss (score=2)) and the “Homogeneous radiopacity (0-1)” value is on record as 1. In addition, the “Precipitation (0-2)” value in series [2] is given as 2.
For `COCCOCCOCCOc1c(I)cc(I)cc1I` [LFE05], in that order: 3 (highly radiolabile when the radiopacity loss was comprised between 70to 100% radiopacity loss (score=3)), 0 and 2.
For `OCCOCCOCCOc1c(I)cc(I)cc1I` [LFE06], in that order: 2 (moderately radiolabile when the radiopacity loss was comprised between 26 to 69% radiopacity loss (score=2)), 1 and 2.
For `COCCOCCOCCOCCOCCOc1c(I)cc(I)cc1I` [LFE07], in that order: 2 (moderately radiolabile when the radiopacity loss was comprised between 26 to 69% radiopacity loss (score=2)), 1 and 2.
Regarding `COCCOCCOCCOCCOCCOCCOCCOCCOCCOCCOCCOCCOc1c(I)cc(I)cc1I` [LFE08], the “% of radiopacity compared to time zero” value in series [1] (setting [5]) is recorded as 29.3%. In addition, in series [1], the “radiopacity loss in PBS over time (in words)” value is given as “significant radiopacity loss”, the “Radiopacity loss (0-3)” value is 2 (moderately radiolabile when the radiopacity loss was comprised between 26 to 69% radiopacity loss (score=2)) and the “Homogeneous radiopacity (0-1)” value turned out to be 1. Moreover, the “% of radiopacity compared to time zero” value in series [1] (t zero) came to 100.0%. The “Precipitation (0-2)” value in series [2] was determined as 0.
With `COCCOCCOCCOC(=O)COc1c(I)cc(I)cc1I` [LFE09], in series [3], the “embolization of the kidney (in words)” value is on record as “the upper pole of the kidney was blocked”. For the same compound, in series [1] (setting [5]), the “% of radiopacity compared to time zero” value came to 64.7%. In series [1], the “radiopacity loss in PBS over time (in words)” value is “significant radiopacity loss”, the “Radiopacity loss (0-3)” value is 3 (highly radiolabile when the radiopacity loss was comprised between 70to 100% radiopacity loss (score=3)) and the “Homogeneous radiopacity (0-1)” value came out at 1. For the same compound, the “% of radiopacity compared to time zero” value in series [1] (t zero) stood at 100.0%. Besides, the “Precipitation (0-2)” value in series [2] is listed as 2.
Consider `O=C(COc1c(I)cc(I)cc1I)OCCOCCOCCO` [LFE10], for which, in series [1], the “Radiopacity loss (0-3)” value is given as 3 (highly radiolabile when the radiopacity loss was comprised between 70to 100% radiopacity loss (score=3)) and the “Homogeneous radiopacity (0-1)” value is reported as 1. In series [2], the “Precipitation (0-2)” value is on record as 2.
For `CC(=O)OCCOCCOCCOc1c(I)cc(I)cc1I` [LFE12], in that order: 2 (moderately radiolabile when the radiopacity loss was comprised between 26 to 69% radiopacity loss (score=2)), 0 and 2.
Take `CN(C(=O)CO)c1c(I)c(C(=O)NCC(O)CO)c(I)c(C(=O)NCC(O)CO)c1I` (centres unmarked) [LFE13, iomeprol, reference compound]: the figures for the “% of radiopacity compared to time zero” value in series [4], in series [1] (setting [5]) and in series [1] (t zero) were 29.0%, 11.9% and 100.0%, respectively. In addition, the “Radiopacity loss (0-3)” value in series [1] is listed as 3 (highly radiolabile when the radiopacity loss was comprised between 70to 100% radiopacity loss (score=3)). Also, in series [1], the “Homogeneous radiopacity (0-1)” value is recorded as 1. The “Precipitation (0-2)” value in series [2] came to 0.
For `CC(=O)OCC(=O)N(C)c1c(I)c(C(=O)NCC(COC(C)=O)OC(C)=O)c(I)c(C(=O)NCC(COC(C)=O)OC(C)=O)c1I` (centres unmarked) [LFE14], in series [1], the “Radiopacity loss (0-3)” value is reported as 3 (highly radiolabile when the radiopacity loss was comprised between 70to 100% radiopacity loss (score=3)) and the “Homogeneous radiopacity (0-1)” value amounted to 1. The “Precipitation (0-2)” value in series [2] came out at 2.
With `O=C(OCCOCCOCCOCCOCCO)c1cc(I)cc(I)c1I` [LFE17], in series [1], the “Radiopacity loss (0-3)” value is 2 (moderately radiolabile when the radiopacity loss was comprised between 26 to 69% radiopacity loss (score=2)) and the “Homogeneous radiopacity (0-1)” value was found to be 1. Further, the “Precipitation (0-2)” value in series [2] was 2.
Taken in the same sequence, the figures for `COCCOCCOCCOCCOCCOCc1cc(I)cc(I)c1I` [LFE19] were 1 (slightly radiolabile when the radiopacity loss was comprised between 5 to 25% radiopacity loss (score=1)), 1 and 2.
For `COCCOCCOCCOCc1cc(I)cc(I)c1I` [LFE20], in that order: 1 (slightly radiolabile when the radiopacity loss was comprised between 5 to 25% radiopacity loss (score=1)), 0 and 2.
For the compound `CCCCCCOC(=O)c1c(I)c(NC(C)=O)c(I)c(NC(C)=O)c1I` [LFE21], in series [1] (setting [5]), the “% of radiopacity compared to time zero” value came to 91.4%. In series [1], the “radiopacity loss in PBS over time (in words)” value is given as “significant radiopacity loss”, the “Radiopacity loss (0-3)” value is recorded as 1 (slightly radiolabile when the radiopacity loss was comprised between 5 to 25% radiopacity loss (score=1)) and the “Homogeneous radiopacity (0-1)” value was 1. For the same compound, in series [1] (t zero), the “% of radiopacity compared to time zero” value is listed as 100.0%. The “Precipitation (0-2)” value in series [2] was 2.
`CCCOC(=O)c1c(I)c(NC(C)=O)c(I)c(NC(C)=O)c1I` [LFE22]: in series [1], the “Radiopacity loss (0-3)” value was 1 (slightly radiolabile when the radiopacity loss was comprised between 5 to 25% radiopacity loss (score=1)) and the “Homogeneous radiopacity (0-1)” value is on record as 1. For the same compound, in series [2], the “Precipitation (0-2)” value was found to be 2.
For `CC(=O)Nc1c(I)c(NC(C)=O)c(I)c(C(=O)O)c1I` [LFE23, Diatrizoic acid, reference compound], the “% of radiopacity compared to time zero” value in series [4] was 35.6%; in series [1] (setting [5]) it was 19.0%; in series [1] (t zero), 100.0%. Moreover, in series [1], the “Radiopacity loss (0-3)” value was 3 (highly radiolabile when the radiopacity loss was comprised between 70to 100% radiopacity loss (score=3)). For the same compound, the “Homogeneous radiopacity (0-1)” value in series [1] was 1. The “Precipitation (0-2)” value in series [2] was found to be 1.
As for `CCCCC(CC)COc1c(I)cc(I)cc1I` (centres unmarked) [LFE24], the “% of radiopacity compared to time zero” value in series [4] was 101.3%. Besides, the “% of radiopacity compared to time zero” value in series [1] (setting [5]) is reported as 101.9%. In series [1], the “radiopacity loss in PBS over time (in words)” value is recorded as “complete radiostability”, the “Radiopacity loss (0-3)” value is 0 (radiostable (score =0) when the radiopacity loss was below 5%) and the “Homogeneous radiopacity (0-1)” value was 0. In addition, the “% of radiopacity compared to time zero” value in series [1] (t zero) is on record as 100.0%. Also, in series [2], the “Precipitation (0-2)” value came out at 1.
